The values below come from US11192890B2, “FGFR kinase inhibitors and pharmaceutical uses” (AUCKLAND UNISERVICES LIMITED, priority 2017, dated 2021).

Data set [1] in a line: Pulse radiolysis of prodrugs. Type of data set: physicochemical.
Data set [2] deals with FGFR1 in H520 cells (phospho-ERK1/2). As to the kind of experiment: Drug washout Western blot assay, H520 cells. The following applies: H520, 2 hours exposure; for reversible or irreversible inhibition of FGFR1 in cells: 100, 300 and 600 nM, with and without washout. Type of data set: cell-based.
For the next data set, the system named is SW780 cells. As to the kind of experiment: Oxic and anoxic anti-proliferative activity of the prodrugs. Type of data set: cell-based. The following applies: Homo sapiens, SW780; oxic conditions; read-out: Cellular Anti-proliferative IC50, SW780, Oxic.
For the next data set, the system named is SUM52 cells. The data set is described as above. The following applies: read-out: Cellular Anti-proliferative IC50, SUM52, Oxic; oxic conditions.
The subject of a further data set is H520 cells. Described as above. The note with it: read-out: Cellular Anti-proliferative IC50, H520, Oxic; oxic conditions.
The test system of the next data set is panel of 456 kinases. The data set can be described thus: Biochemical kinase selectivity screening (DiscoveRx KINOMEscan). Type of data set: binding.
For data set [3], the system named is FGFR1-amplified H520 non-small cell lung cancer cells. The data set can be described thus: Cell proliferation assay (SRB). Type of data set: cell-based. The following applies: Homo sapiens, NCI-H520, 168 h, read-out: Cellular Anti-proliferative IC50, H520.
Data set [4] relates to FGFR3-amplified SW780 bladder cancer cells. The data set can be described thus: Cell proliferation assay (SRB). The following applies: Homo sapiens, SW780, 120 h, read-out: Cellular Anti-proliferative IC50, SW780, 5 days drug exposure.
For data set [5], the system named is FGFR2-amplified SUM52 breast cancer cells. The data set can be described thus: Cell proliferation assay (SRB). Type of data set: cell-based. The following applies: SUM52, 120 h, read-out: Cellular Anti-proliferative IC50, SUM52, 5 days drug exposure.

Consider `COc1cc(OC)c(Cl)c(N2Cc3cnc(NC(C)C)nc3N(C3CCN(C(=O)/C=C/C[N+](C)(C)Cc4c([N+](=O)[O-])ncn4C)CC3)C2=O)c1Cl.[Br-]` [Compound 202, (E)-4-(4-(3-(2,6-dichloro-3,5-dimethoxyphenyl)-7-(isopropylamino)-2-oxo-3,4-dihydropyrimido[4,5-d]pyrimidin-1(2H)-yl)piperidin-1-yl)-N,N-dimethyl-N-((1-methyl-4-nitro-1H-imidazol-5-yl)methyl)-4-oxobut-2-en-1-aminium bromide], for which the melting point was in the range of 171 to 174 °C. In addition, the “first order rate of fragmentation kfrag” value in data set [1] turned out to be 26 s⁻¹. Also, the “reversible or irreversible inhibition of FGFR1 in cells” value (from here on “reversible or irreversible inhibition”) in [2] is listed as “reversible inhibitors”. Besides, the IC50 with SW780 cells is 2120 nM. In the data set with SUM52 cells, the IC50 stood at 737 nM. In the data set on H520 cells, the IC50 stood at 1730 nM.
On to `COc1cc(OC)c(Cl)c(N2Cc3cnc(Nc4ccc(F)cc4)nc3N(C3CCN(C(=O)/C=C/CN(C)C)CC3)C2=O)c1Cl` [Compound 120, (E)-3-(2,6-dichloro-3,5-dimethoxyphenyl)-1-(1-(4-(dimethylamino)but-2-enoyl)piperidin-4-yl)-7-((4-fluorophenyl)amino)-3,4-dihydropyrimido[4,5-d]pyrimidin-2(1H)-one], for which the “share of the non-mutant kinases studied with Percent Control <35” value in the data set on panel of 456 kinases (1 uM, 33/403 kinases) worked out at 8.2%. In addition, the “selectivity for the FGFR family” value in the data set on panel of 456 kinases (panel of 456 kinases) is “excellent selectivity”. Also, the “S(35) selectivity score” value with panel of 456 kinases (set concentration of 1 uM) was found to be 0.082. Moreover, the results for the half-inhibitory concentration (IC50) in data set [3], in [4] and in data set [5] were 8.7 nM, 16 nM and 0.8 nM, respectively. For the same compound, the “reversible or irreversible inhibition” value in data set [2] was “potent, irreversible inhibition”.
As to `CNc1ncc2c(n1)N([C@H]1CCN(C(=O)/C=C/C[N+](C)(C)Cc3c([N+](=O)[O-])ncn3C)C1)C(=O)N(c1c(Cl)c(OC)cc(OC)c1Cl)C2.[Br-]` [Compound 200, (S,E)-4-(3-(3-(2,6-dichloro-3,5-dimethoxyphenyl)-7-(methylamino)-2-oxo-3,4-dihydropyrimido[4,5-d]pyrimidin-1(2H)-yl)pyrrolidin-1-yl)-N,N-dimethyl-N-((1-methyl-4-nitro-1H-imidazol-5-yl)methyl)-4-oxobut-2-en-1-aminium bromide], the melting point fell in the range of 195 to 198 °C. Moreover, in data set [1], the “first order rate of fragmentation kfrag” value is 32 s⁻¹. For the same compound, the “reversible or irreversible inhibition” value in data set [2] is “reversible inhibitor”. The “concentration required to suppress FGFR1 signalling through phospho-ERK1/2” value in data set [2] (tested at 100, 300 and 600 nM) came to 300 nM. In addition, in the data set with SW780 cells, the IC50 worked out at 2640 nM. Moreover, in the data set with SUM52 cells, the IC50 came out at 229 nM. The IC50 in the data set with H520 cells came to 3660 nM.

A word on the melting point: it is the temperature, or range, at which the solid turns liquid. As a reminder, the IC50 is the concentration at which inhibition is half-maximal.
